Series [1] concerns cell layer of the invention. In words: Ginkgo extract ingredient profiles, apical vs basal side of the cell layer. Type of series: in vitro ADME, human. The procedure: FIG. 8. Representative chromatogram of intact flavonol glycosides determined in fluid from the apical side of the cell layer 60 minutes after application of standardized ginkgo extract (equivalent of 10 mg extract).
FIG. 9. Representative chromatogram of intact flavonol glycosides determined in fluid from the basal side of the cell layer 60 minutes after application of standardized ginkgo extract (equivalent of 10 mg extract).
FIG. 10. Representative chromatogram of ginkgolides determined in fluid from the apical side of the cell membrane 60 minutes after application of standardized ginkgo extract (equivalent of 20 mg extract).
FIG. 11. Representative chromatogram of ginkgolides determined in fluid from the basal side of the cell layer 60 minutes after application of standardized ginkgo extract (equivalent of 400 mg extract).
In some embodiments, compositions for processing in accordance with the methods of the invention may include natural substances, such as crude extracts or formulations from natural products such as plants, which may be dissolved or suspended in an aqueous solution, such as a pH buffered solution or an artificial intestinal fluid. In alternative embodiments, a sample of these substances may be treated with artificial gastric juices to test prior to processing with the cell layers of the invention, for example to test for potential decomposition of ingredients under acidic conditions. In some embodiments, a known concentration of the solution or composition for processing, in either buffered solution or artificial intestinal fluid, may be applied to the apical or first side of the cell layer (membrane). Subsequently, one or more samples may be collected from the basal or second side of the cell layer, which may for example contain a cell culture medium or human plasma or components of human plasma such as albumin. In alternative embodiments, samples may be taken from the apical and basal sides for ingredient identification and/or quantification. Common analytical approaches such as high performance liquid chromatography (HPLC), mass spectrometry (MS), gas chromatography (GC), LC/MS, or GC/MS may then be used for the identification or quantification of the components present in the physiologically modified composition.
Although the invention may be used to conduct permeability screening in a manner similar to how Caco-2 the industry standard is used, it has a unique and novel application in identifying absorbable active ingredients in natural health products (or natural products or nutraceuticals or botanicals or herbals or dietary supplements) or any products that contain mixtures of ingredients of interest (as marker substances or active ingredients) or botanicals. The idea is as follows. Similar to pharmaceutical development, components are not considered active unless they are absorbed into the blood stream. A number of methods have been developed to measure the activities of botanical extracts; very few have measured the active components, let alone absorbable components that are active. It has been shown time and again that marker components that have in vitro activities are not absorbed. The active ingredient profile determined using in vitro methods is usually erroneous; this is particularly true for the proportion of the ingredients required because the absorption of individual components is potentially different. A good example is the determination of the ingredient profiles of Ginkgo biloba. People think that the ratios of the ingredients in the herb are important (See FIGS. 8, 10, Tables 3, 4, apical side ratios). But it is only the absorbed ingredients that can have activity and not all ingredients are absorbed or absorbed at the same rate. Therefore, the profiles of absorbed ingredients will differ from the profiles of ingredients in the product, and it is the absorbed ingredient profiles that are biologically most relevant. […]

Series [2] deals with SCBN cells. Put plainly: TEER of SCBN cell layers in different culture conditions. Type of series: cell-based, human. Particulars: SCBN cells on rat-tail collagen, supplemented base medium; day 3 (48 hours after medium change). The procedure:
FIG. 1: illustrates the TEER values of SCBN cells in different culture conditions. TEER measurement was conducted by using EVOM voltmeter from World Precision Instrument.
TEER values may be assayed using any conventional equipment capable of measuring electrical resistance, such as […] from World Precision Instruments.
(§1) To assay the structure of microvilli and to measure TEER, SCBN cells were cultured with DMEM media supplemented with FBS and collected at 24 hours post confluence. Harvested cells were seeded at the density of 1E5 cells/well in Falcon multiple insert plates (0.31 cm2/well). […] Forty-eight hours after medium change, SCBN cells were processed for SEM examination following conventional SEM sample preparation. Assessments of microvilli structure were made from SEM images.

Series [3] deals with SCBN cells. Put plainly: Microvilli structure of SCBN cells by SEM. Type of series: cell-based, human. The following applies: SEM 48 hours after medium change; for length of microvilli: 5 μM Ro31-8220 and/or 5 mM sodium butyrate in base medium. The procedure: as §1
The subject of series [4] is SCBN cells. In words: Enzyme expression in SCBN cell lysate. Type of series: cell-based, human. Particulars: 5 μM Ro 31-8220 alone. On the procedure: FIG. 2: illustrates the expression of enzymes in SCBN cells cultured under culture conditions of the invention. Enzyme activity is expressed as milliunit per mg of protein. One unit equals the digestion of one μmole of substrate per minute at 37° C. AP: Alkaline phosphatase; DPP: dipeptidylpeptidase-IV; APN: aminopeptidase N; APA: aminopeptidase A.
To assay patterns of enzyme expression, SCBN cells were cultured with DMEM media supplemented with FBS and collected at 24 hours post confluence. SCBN cells were seeded with DMEM supplemented with FBS at 1E5 cells/well in non-coated and rat-tail collagen-coated Falcon multiple insert plate. Twenty-four hours after seeding media were change with DMEM supplemented with FBS with DMEM supplemented with FBS in non-coated inert wells whereas the media in rat-tail collagen-coated wells were changed with Kinetana base media supplemented with 5 μM of Ro31-8220 and 5 mM of sodium butyrate. Forty-eight hours after medium change, SCBN cells were lysed with ⅕ strength of Tris buffered saline on ice and the whole cell lysate was assayed for enzyme activity by incubating the cell lysate with specific substrate for 60 minutes at 37° C. […]

Series [5] has as its system monolayers of the invention (Kinetana cell line). In words: Permeability across monolayers of the invention. Type of series: in vitro ADME, human. An excerpt:
(§2) (He, Murby et al. 1998) relate the permeability profile of PEG oligomers to tight junction pore size. Their data in CaCo-2 correspond very closely to Kinetana's data with Caco-2, in that there is a steep drop-off in permeability between molecular weights 200 and 450, then a leveling off. The invention permeability, in contrast, declines slowly and continuously from MW 200 to over 1,000 Da (FIG. 3).
(§3) The bioavailability of PEG 900 is reported to be 10% (Yee 1997).

The test system of series [6] is Caco-2. Put plainly: Permeability across CaCo-2 monolayers. Type of series: in vitro ADME, human.
Text: as §2, §3
(In general: Caco-2 cells form a polarised layer with tight junctions and transporters.)

Series [7] has as its system Kinetana cells using the Buret growth condition. Put plainly: Permeability in Kinetana cells using the Buret growth condition. Type of series: in vitro ADME, human.
Text: The proprietary growth conditions result in a different paracellular diffusion performance of the Kinetana cell line compared with CaCo-2 and T-84 human colon cancer cell lines (He, Murby et al. 1998) and also SCBN with the Buret condition. The proprietary condition correlates better with human paracellular marker permeability, and this appears to relate to the differences in tight junction pore size between the new method and the others. The evidence for these claims is as follows.
as §3

For series [8] the following is noted: Yee 1997; cited from earlier work.
Where [9] appears, read: apical side (pre-absorption), six commercial ginkgo extract samples.
Setting [10] is: basal side (absorbed ingredients), six commercial ginkgo extract samples.

Read-outs that look alike come from different tables or passages of the source.

Regarding `CC(C)(C)[C@]1(O)CC2OC(=O)CC23C(=O)OC2OC(=O)[C@H](O)C231` (some centres unmarked) [Bilobalide], in series [1] (setting [9]), the “Ginkgo terpene lactone components ratio to Ginkgolide A, Apical side Mean” value is 0.66. Moreover, in series [1] (setting [10]), the “Ginkgo terpene lactone components ratio to Ginkgolide A, Basal side Mean” value is reported as 0.44.
As to `C[C@@H]1C(=O)O[C@H]2C[C@@]34[C@H]5C[C@@H](C(C)(C)C)[C@]36[C@@H](OC(=O)[C@@H]6O)O[C@@]4(C(=O)O5)[C@]21O` [Ginkgolide A], the “Ginkgo terpene lactone components ratio to Ginkgolide A, Apical side Mean” value in series [1] (setting [9]) was 1.00. In addition, the “Ginkgo terpene lactone components ratio to Ginkgolide A, Basal side Mean” value in series [1] (setting [10]) came out at 1.00.
With `CC1C(=O)OC2C(O)C34C5CC(C(C)(C)C)C36C(OC(=O)C6O)OC4(C(=O)O5)C12O` (centres unmarked) [Ginkgolide B], the “Ginkgo terpene lactone components ratio to Ginkgolide A, Apical side Mean” value in series [1] (setting [9]) is reported as 0.20. The “Ginkgo terpene lactone components ratio to Ginkgolide A, Basal side Mean” value in series [1] (setting [10]) worked out at 0.12.
As to `Cn1cc(C2=C(c3cn(CCCSC(=N)N)c4ccccc34)C(=O)NC2=O)c2ccccc21` [Ro31-8220, 2-{1-[3-(amidinothio)propyl]-1H-indol-3-yl}-3-(1-meethylindol-3-yl)-maleimide methanesulfonate], in series [2], the TEER value result is listed as “about 680 ohm.cm^2”. Further, the length of microvilli result in series [3] is listed as “did not measurably increase”. The “percentage of cells with long microvilli” value in series [3] (compared with base medium) was “did not measurably increase”. In addition, the “expression of alkaline phosphatase activity” value in series [4] was “up-regulate”.
For `C[C@@H]1O[C@@H](OC[C@H]2O[C@@H](Oc3c(-c4ccc(O)c(O)c4)oc4cc(O)cc(O)c4c3=O)[C@H](O)[C@@H](O)[C@@H]2O)[C@H](O)[C@H](O)[C@H]1O` [Rutin], the “Ginkgo intact flavone components ratio to Rutin, Apical Mean” value in series [1] (setting [9]) is 1.00. Besides, the “Ginkgo intact flavone components ratio to Rutin, basal Mean” value in series [1] (setting [10]) was 1.00.
Regarding `CCCC(=O)[O-].[Na+]` [sodium butyrate], the TEER value result in series [2] is “about 175 ohm.cm^2”. This compound also registered a length of microvilli in series [3] of less than 0.1 um.
For the compound Ginkgolide C, in series [1] (setting [9]), the “Ginkgo terpene lactone components ratio to Ginkgolide A, Apical side Mean” value is 0.32. Moreover, the “Ginkgo terpene lactone components ratio to Ginkgolide A, Basal side Mean” value in series [1] (setting [10]) came to 0.20.
For the compound Ginkgolide J, in series [1], the “Ginkgo terpene lactone components ratio to Ginkgolide A, Apical side Mean” value is reported as 0.86 and the “Ginkgo terpene lactone components ratio to Ginkgolide A, Basal side Mean” value was 0.55.
Consider PEG 900, for which the permeability in series [5] (conditions of the invention) was approximately 10 nm/s; in series [6], “too low to be measured”; in series [7] it was “too low to be measured”. Besides, in series [5] (predicted from permeability under conditions of the invention), the predicted human bioavailability entry is listed as “around 12%”. For the same compound, in series [8], the “bioavailability (reported)” value is given as 10%.

These data come from patent publication US20040115801A1, “Model epithelial cell cultures” (KINETANA GROUP INC., priority 2002, published 2004).
